Drawing on patent US6410792B1, “Amide derivatives and methods for using the same as selective neuropeptide Y receptor antagonists” (Bayer Corporation, priority 1997, dated 2002), this text covers IC50 for 27 molecules.

One test concerns the target T1, Human NPY5 receptor (Homo sapiens, UniProt Q15761).
T1 sequence (Q15761 1-445): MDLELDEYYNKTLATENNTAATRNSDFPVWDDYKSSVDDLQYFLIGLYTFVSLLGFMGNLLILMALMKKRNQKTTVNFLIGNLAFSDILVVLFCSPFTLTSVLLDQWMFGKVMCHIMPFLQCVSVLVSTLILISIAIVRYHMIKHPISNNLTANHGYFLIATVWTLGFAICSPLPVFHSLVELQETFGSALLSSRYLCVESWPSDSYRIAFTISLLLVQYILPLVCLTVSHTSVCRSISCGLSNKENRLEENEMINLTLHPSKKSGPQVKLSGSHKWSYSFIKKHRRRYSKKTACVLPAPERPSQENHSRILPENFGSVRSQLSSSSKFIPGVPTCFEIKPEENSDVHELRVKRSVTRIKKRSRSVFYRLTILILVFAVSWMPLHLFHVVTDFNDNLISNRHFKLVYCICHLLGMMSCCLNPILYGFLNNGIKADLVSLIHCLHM
Kind of test: Human NPY5 receptor binding assay ([125I]PYY, membrane protein). As to conditions: read-out: hNPY5 IC50. The procedure, abridged: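 Competition against porcine [125I]PYY (75-100 pM) on receptor membranes, 2 h, room temperature, Tris-based pH 7.4 buffer with BSA and bacitracin. Bound radioactivity after filtration and ice-cold rinse counted by gamma or liquid scintillation; 1 μM PYY defines nonspecific binding.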

The next test concerns the target T2, Rat NPY5 receptor (Rattus norvegicus, UniProt Q63634).
T2 sequence (Q63634 1-445): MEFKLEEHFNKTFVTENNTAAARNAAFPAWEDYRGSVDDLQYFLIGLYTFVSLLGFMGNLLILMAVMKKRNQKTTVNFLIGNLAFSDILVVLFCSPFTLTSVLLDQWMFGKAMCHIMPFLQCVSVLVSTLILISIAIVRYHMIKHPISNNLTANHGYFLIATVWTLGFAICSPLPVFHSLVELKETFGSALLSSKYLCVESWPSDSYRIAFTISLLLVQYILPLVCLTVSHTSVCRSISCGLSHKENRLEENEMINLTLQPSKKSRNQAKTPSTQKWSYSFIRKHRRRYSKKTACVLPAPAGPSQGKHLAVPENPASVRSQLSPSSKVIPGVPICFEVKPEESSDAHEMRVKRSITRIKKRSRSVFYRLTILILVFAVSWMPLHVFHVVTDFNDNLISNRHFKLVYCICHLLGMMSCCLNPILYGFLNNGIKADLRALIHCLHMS
The experiment in a line: Rat NPY5 receptor binding assay ([125I]PYY, membrane protein). As to conditions: read-out: rNPY5 IC50. The procedure:
C. Human and Rat NPY5 Receptor Binding Assays
Binding assays are performed on GF/C Millipore 96well plates pretreated with 0.02% polyethylenimine. The binding buffer is 25 mM Tris, 120 mM NaCl, 5 mM KCl, 1.2 mM KH2PO4, 2.5 mM CaCl2, 1.2 mM MgSO4, 0.1% BSA and 0.5 mg/ml bacitracin, pH 7.4. Samples consist of membrane protein, 75-100 pM [125I]PYY (porcine, NEN-DuPont) and drug dilution. Nonspecific binding is defined by 1 μM PYY. After a 2 hour incubation at room temperature with constant mixing, the samples are aspirated on a vacuum manifold, and rinsed with ice-cold binding buffer. The amount of radioactivity in each well is quantitated with either gamma counting or liquid scintillation.

Where a name gives a salt, the structure may show the parent alone. Read-outs that look alike come from different tables or passages of the source.

Take `CCNC1CCN(CC(=O)Nc2ccc(C3CCCCC3)cc2)C1` (stereo not drawn) [Compound 199, N-(4-Cyclohexyl-phenyl)-2-(3-ethylamino-pyrrolidin-1-yl)-acetamide]: the 50% inhibitory concentration (IC50) was 0.82 µM on Human NPY5 receptor ([125I]PYY binding) and 2.4 µM at Rat NPY5 receptor ([125I]PYY binding).
Consider `O=C(CNc1c(I)cc(C(=O)O)cc1I)Nc1ccc(C2CCCCC2)cc1` [Compound 165, 4-{[(4-Cyclohexyl-phenylcarbamoyl)-methyl]-amino)-3,5-diiodo-benzoic acid anion], for which the IC50 turned out to be 1.1 µM on Human NPY5 receptor ([125I]PYY binding) and 0.7 µM at Rat NPY5 receptor ([125I]PYY binding).
On to `CC(=O)OC1CC2CC1N(CC(=O)Nc1ccc(C3CCCCC3)cc1)C2` (stereo not drawn) [Compound 221, Acetic acid 2-[(4-cyclohexyl-phenylcarbamoyl)-methyl]-2-aza-bicyclo[2.2.1]hept-6-yl ester], for which the concentration for half-maximal inhibition (IC50) at Human NPY5 receptor ([125I]PYY binding) and on Rat NPY5 receptor ([125I]PYY binding) was 0.029 µM each time.
Regarding `COC(CNCC(=O)Nc1ccc(C(=O)c2ccccc2)cc1)OC` [Compound 5, N-(4-Benzoyl-phenyl)-2-(2,2-dimethoxy-ethylamino)-acetamide], the IC50 at Human NPY5 receptor ([125I]PYY binding) and on Rat NPY5 receptor ([125I]PYY binding) was 0.3 µM in each case.
Take `O=C(CNCc1ccco1)Nc1ccc(C(=O)c2ccccc2)cc1` [Compound 166, N-(4-Benzoyl-phenyl)-2-[(furan-2-ylmethyl)-amino]-acetamide]: the values for the IC50 on Human NPY5 receptor ([125I]PYY binding) and on Rat NPY5 receptor ([125I]PYY binding) were 0.61 µM and 0.73 µM, respectively.
`COc1cc(CCNCC(=O)Nc2ccc(C(=O)c3ccccc3)cc2)ccc1O` [Compound 202, N-(4-Benzoyl-phenyl)-2-[2-(4-hydroxy-3-methoxy-phenyl)-ethylamino]-acetamide]: the concentration for half-maximal inhibition (IC50) at Human NPY5 receptor ([125I]PYY binding) turned out to be 0.058 µM; at Rat NPY5 receptor ([125I]PYY binding) it was 0.053 µM.
With `O=C(CNC1CCC1)Nc1ccc(C(=O)c2ccccc2)cc1` [Compound 242, N-(4-Benzoyl-phenyl)-2-cyclobutylamino-acetamide], the results for the IC50 at Human NPY5 receptor ([125I]PYY binding) and at Rat NPY5 receptor ([125I]PYY binding) were 4.4 µM and 5 µM, respectively.
With `CN(C(=O)OC(C)(C)C)C1CCN(CC(=O)Nc2ccc(C(=O)c3ccccc3)cc2)C1` (stereo not drawn) [Compound 225, {1-[(4-Benzoyl-phenylcarbamoyl)-methyl]-pyrrolidin-3-yl)-methyl-carbamic acid tert-butyl ester], the IC50 on Human NPY5 receptor ([125I]PYY binding) is 0.32 µM; on Rat NPY5 receptor ([125I]PYY binding), 0.19 µM.
For the molecule `O=C(CN1CCC(O)(Cc2ccccc2)CC1)Nc1ccc(-c2ccccc2)cc1` [Compound 315, 2-(4-Benzyl-4-hydroxy-piperidin-1-yl)-N-biphenyl-4-yl-acetamide; hydrochloride], the values for the IC50 at Human NPY5 receptor ([125I]PYY) and at Rat NPY5 receptor ([125I]PYY) were 0.8 µM and 2 µM, respectively.
Regarding `COC(=O)C=C(C)NCC(=O)Nc1ccc(C2CCCCC2)cc1` [Compound 238, 3-{[(4-Cyclohexyl-phenylcarbamoyl)-methyl]-amino}-but-2-enoic acid methyl ester], the IC50 at Human NPY5 receptor ([125I]PYY binding) came out at 0.65 µM; at Rat NPY5 receptor ([125I]PYY binding), 0.55 µM.
Turning to `CN(C(=O)OC(C)(C)C)C1CCN(CC(=O)Nc2ccc(C3CCCCC3)cc2)C1` (stereo not drawn) [Compound 215, {1-[(4-Cyclohexyl-phenylcarbamoyl)-methyl]-pyrrolidin-3-yl)-methyl-carbamic acid tert-butyl ester], the IC50 amounted to 0.17 µM on Human NPY5 receptor ([125I]PYY binding) and 0.3 µM on Rat NPY5 receptor ([125I]PYY binding).
Consider `CCNC1CCN(CC(=O)Nc2ccc(C(=O)c3ccccc3)cc2)C1` (stereo not drawn) [Compound 206, N-(4-Benzoyl-phenyl)-2-(3-ethylamino-pyrrolidin-1-yl)-acetamide], for which the IC50 at Human NPY5 receptor ([125I]PYY binding) was found to be 0.042 µM; on Rat NPY5 receptor ([125I]PYY binding), 0.048 µM.
On to `C#CC(C)(C)NCC(=O)Nc1ccc(C(=O)c2ccccc2)cc1` [Compound 223, N-(4-Benzoyl-phenyl)-2-(1,1-dimethyl-prop-2-ynylamino)-acetamide], for which the half-maximal inhibitory concentration (IC50) at Human NPY5 receptor ([125I]PYY binding) came out at 0.54 µM; at Rat NPY5 receptor ([125I]PYY binding), 1.4 µM.
For the molecule `O=C(CN1CCC(NC(=O)C(F)(F)F)C1)Nc1ccc(C(=O)c2ccccc2)cc1` (stereo not drawn) [Compound 207], the IC50 stood at 0.048 µM on Human NPY5 receptor ([125I]PYY binding) and 0.05 µM at Rat NPY5 receptor ([125I]PYY binding).
The corresponding values for `O=C(CNCCCn1ccnc1)Nc1ccc(C2CCCCC2)cc1` [Compound 234, N-(4-Cyclohexyl-phenyl)-2-(3-imidazol-1-yl-propylamino)-acetamide] are 0.95 µM and 0.61 µM.
Turning to `O=C1C=C(NCC(=O)Nc2ccc(C3CCCCC3)cc2)CCC1` [Compound 179, N-(4-Cyclohexyl-phenyl)-2-(3-oxo-cyclohex-1-enylamino)-acetamide], the IC50 at Human NPY5 receptor ([125I]PYY binding) and at Rat NPY5 receptor ([125I]PYY binding) was above 10 µM in each case.
Consider `CNC1CCN(CC(=O)Nc2ccc(C3CCCCC3)cc2)C1` (stereo not drawn) [Compound 198, N-(4-Cyclohexyl-phenyl)-2-(3-methylamino-pyrrolidin-1-yl)-acetamide], for which the figures for the IC50 at Human NPY5 receptor ([125I]PYY binding) and on Rat NPY5 receptor ([125I]PYY binding) were 1 µM and 1.3 µM, respectively.
As to `CC(C)(C)OC(=O)NC1CCN(CC(=O)Nc2ccc(C(=O)c3ccccc3)cc2)C1` (stereo not drawn) [Compound 205, {1-[(4-Benzoyl-phenylcarbamoyl)-methyl]-pyrrolidin-3-yl}-carbamic acid tert-butyl ester], the IC50 turned out to be 0.072 µM at Human NPY5 receptor ([125I]PYY binding) and 0.071 µM at Rat NPY5 receptor ([125I]PYY binding).
In the case of `CC(=O)OC1CC2CC1N(CC(=O)Nc1ccc(C(=O)c3ccccc3)cc1)C2` (stereo not drawn) [Compound 231, Acetic acid 2-[(4-benzoyl-phenylcarbamoyl)-methyl]-2-aza-bicyclo[2.2.1]hept-6-yl ester], the IC50 on Human NPY5 receptor ([125I]PYY binding) was 0.067 µM; on Rat NPY5 receptor ([125I]PYY binding), 0.074 µM.
As for `O=C(CNCCCn1ccnc1)Nc1ccc(C(=O)c2ccccc2)cc1` [Compound 244, N-(4-Benzoyl-phenyl)-2-(3-imidazol-1-yl-propylamino)-acetamide], the IC50 amounted to 0.67 µM at Human NPY5 receptor ([125I]PYY binding) and 3 µM on Rat NPY5 receptor ([125I]PYY binding).
With `C#CC(C)(C)NCC(=O)Nc1ccc(C2CCCCC2)cc1` [Compound 213, N-(4-Cyclohexyl-phenyl)-2-(1,1-dimethyl-prop-2-ynylamino)-acetamide], the IC50 at Human NPY5 receptor ([125I]PYY binding) and on Rat NPY5 receptor ([125I]PYY binding) was 0.36 µM in each case.
`CC(C)(C)OC(=O)NC1CCN(CC(=O)Nc2ccc(C3CCCCC3)cc2)C1` (stereo not drawn) [Compound 194, {1-[(4-Cyclohexyl-phenylcarbamoyl)-methyl]-pyrrolidin-3-yl}-carbamic acid tert-butyl ester]: the values for the IC50 on Human NPY5 receptor ([125I]PYY binding) and on Rat NPY5 receptor ([125I]PYY binding) were 0.037 µM and 0.035 µM, respectively.
As to `O=C(CNCC1CC1)Nc1ccc(C(=O)c2ccccc2)cc1` [Compound 184, N-(4-Benzoyl-phenyl)-2-(cyclopropylmethyl-amino)-acetamide], the half-inhibitory concentration (IC50) was 0.74 µM on Human NPY5 receptor ([125I]PYY binding) and 0.69 µM on Rat NPY5 receptor ([125I]PYY binding).
Take `C=CCC(NCC(=O)Nc1ccc(C(=O)c2ccccc2)cc1)C(=O)O` (stereo not drawn) [Compound 230, 2-{[(4-Benzoyl-phenylcarbamoyl)-methyl]-amino}-pent-4-enoic acid]: the figures for the IC50 on Human NPY5 receptor ([125I]PYY binding) and on Rat NPY5 receptor ([125I]PYY binding) were 0.81 µM and 2.5 µM, respectively.
In the case of `CCN(CC)CCCC(C)NCC(=O)Nc1ccc(C(=O)c2ccccc2)cc1` (stereo not drawn) [Compound 246, N-(4-Benzoyl-phenyl)-2-(4-diethylamino-1-methyl-butylamino)-acetamide], the IC50 came out at 1.6 µM at Human NPY5 receptor ([125I]PYY) and 1.7 µM at Rat NPY5 receptor ([125I]PYY).
Turning to `C=CCNCC(=O)Nc1ccc(C2CCCCC2)cc1` [Compound 235, 2-Allylamino-N-(4-cyclohexyl-phenyl)-acetamide], the IC50 on Human NPY5 receptor ([125I]PYY binding) is 1.6 µM; on Rat NPY5 receptor ([125I]PYY binding), 3.8 µM.
With `C=CCC(NCC(=O)Nc1ccc(C2CCCCC2)cc1)C(=O)O` (stereo not drawn) [Compound 220, 2-{[(4-Cyclohexyl-phenylcarbamoyl)-methyl]-amino}-pent-4-enoic acid], the IC50 on Human NPY5 receptor ([125I]PYY binding) was 0.54 µM; on Rat NPY5 receptor ([125I]PYY binding), 0.72 µM.
